This is an account of results in patent EP0517262A1, “Trifluorothymidine derivatives, process for producing the same and anti-cancer agent containing the same” (priority 1991, dated 1992).

The subject of one data set is Meth A fibrosarcoma. Kind of data set: Pharmacological Test 1 (anti-cancer activity): tumor weight ratio T/C of subcutaneously transplanted tumor. It counts as in vivo, mice. The settings on record: Mus musculus, 336 h.
The nature of data set [1]: Pharmacological Test 1: body weight change of the tumor-bearing mice. Conditions: day 1 - day 7, female CDF1 mice with Meth A fibrosarcoma.
Excerpt: (§1) Female CDF₁ mice of 6 weeks old were used. As the tumor, Meth A fibrosarcoma was used.
(§2) To the right abdomen of each mouse, 2 x 10⁶ tumor cells were subcutaneously transplanted. On the next day (day 1), the mice were randomly grouped and the suspension was compulsively administered to the mice by using an oral sound for successive 7 days (day 1 - day 7).
For the next data set, the system named is adenocarcinoma-755. Conditions: experimental model tumor; Cancer Research, Vol. 24, p.1979, 1964; cited from earlier work.
The conditions of data set [2]: cited from earlier work.
In another data set the test system is L1210 leukemia. The settings on record: experimental model tumor; Cancer Research, Vol. 24, p.1979, 1964; cited from earlier work.
The mark [3] stands for this setting: po, read-out: Tumor Weight Ratio (T/C : %).

The structures appear in SMILES notation.

Description for Meth A fibrosarcoma: as §1, §2
On day 14, the tumors were removed and weighed. The tumor growth ratio (%) was calculated according to the following equation: Tumor Growth Ratio (%) = T/C x 100 [formula] wherein T means the average weight of tumor of the treated group and C means the average weight of tumor of the control group.

Take `C#CCO[C@H]1C[C@H](n2cc(C(F)(F)F)c(=O)[nH]c2=O)O[C@@H]1CO` [Example 2, 3'-O-propargyl-α,α,α-trifluorothymidine]: the response vs control in vivo at 17.3 mg/kg with Meth A fibrosarcoma (17.3 mg/kg oral, day 1 - day 7, tumors weighed on day 14) came out at 16.6%. The response vs control in vivo at 51.9 mg/kg in the data set on Meth A fibrosarcoma (51.9 mg/kg oral, day 1 - day 7, tumors weighed on day 14) came to 7.7%. Further, the “Body Weight Change” value in data set [1] (17.3 mg/kg oral) is -0.5 g; in data set [1] (51.9 mg/kg oral) it was -4.9 g.
As to `C#CCO[C@H]1C[C@H](n2cc(C(F)(F)F)c(=O)[nH]c2=O)O[C@@H]1CO[Si](C)(C)C(C)C` [Example 7, 5'-O-isopropyldimethylsilyl-3'-O-propargyl-α,α,α-trifluorothymidine], in the data set with Meth A fibrosarcoma (setting [3]), the response vs control in vivo at 26 mg/kg stood at 38% and the response vs control in vivo at 52 mg/kg is 25%. In addition, the “Body Weight Change” value in data set [1] (26.0 mg/kg oral) was -0.2 g. In addition, the “Body Weight Change” value in data set [1] (52.0 mg/kg oral) is -4.0 g.
Regarding `O=c1[nH]c(=O)n([C@H]2C[C@H](O)[C@@H](CO)O2)cc1C(F)(F)F` [Example F3Thd, Trifluorothymidine], the anti-tumor activity result in the data set on adenocarcinoma-755 and in the data set on L1210 leukemia was “excellent anti-tumor activity” throughout. The “metabolism in the body” value in data set [2] (in vivo) was “rapidly metabolized in the body”. Also, the “absorption when administered orally” value in data set [2] (oral administration) was “not well absorbed when administered orally”.
For the compound `C#CCO[C@H]1C[C@H](n2cc(C(F)(F)F)c(=O)n(C(=O)c3ccc(OC)cc3)c2=O)O[C@@H]1CO` [Example 45], in the data set on Meth A fibrosarcoma (28.0 mg/kg oral, day 1 - day 7, tumors weighed on day 14), the response vs control in vivo at 28 mg/kg was found to be 64.6%. Also, the response vs control in vivo at 84.1 mg/kg in the data set with Meth A fibrosarcoma (84.1 mg/kg oral, day 1 - day 7, tumors weighed on day 14) worked out at 6.9%. For the same compound, the “Body Weight Change” value in data set [1] (28.0 mg/kg oral) is on record as 1.3 g; in data set [1] (84.1 mg/kg oral), -4.5 g.
On to `C#CCO[C@H]1C[C@H](n2cc(C(F)(F)F)c(=O)n(C(=O)c3ccccc3)c2=O)O[C@@H]1CO` [Example 6, 3-benzoyl-3'-O-propargyl-α,α,α-trifluorothymidine], for which the response vs control in vivo at 22.7 mg/kg in the data set with Meth A fibrosarcoma (22.7 mg/kg oral, day 1 - day 7, tumors weighed on day 14) turned out to be 28.3%. The response vs control in vivo at 68.1 mg/kg in the data set on Meth A fibrosarcoma (68.1 mg/kg oral, day 1 - day 7, tumors weighed on day 14) was 2.6%. Further, the “Body Weight Change” value was -3.8 g in data set [1] (22.7 mg/kg oral) and -4.7 g in data set [1] (68.1 mg/kg oral).
For `C#CCO[C@H]1C[C@H](n2cc(C(F)(F)F)c(=O)[nH]c2=O)O[C@@H]1CO[Si](CC)(CC)CC` [Example 13, 5'-O-(triethylsilyl)-3'-O-propargyl-α,α,α-trifluorothymidine], in the data set on Meth A fibrosarcoma (setting [3]), the response vs control in vivo at 27 mg/kg came out at 57% and the response vs control in vivo at 54 mg/kg is 37%. For the same compound, in data set [1] (27.0 mg/kg oral), the “Body Weight Change” value is 0.8 g. Further, the “Body Weight Change” value in data set [1] (54.0 mg/kg oral) is -2.9 g.
`C#CCO[C@H]1C[C@H](n2cc(C(F)(F)F)c(=O)[nH]c2=O)O[C@@H]1COC(=O)[C@@H]1CCCN1CCCCCCCCCCCC.Cl` [Example 14, 5'-O-(N-dodecyl-L-prolyl)-3'-O-propargyl-α,α,α-trifluorothymidine hydrochloride]: the response vs control in vivo at 38 mg/kg with Meth A fibrosarcoma (38.0 mg/kg oral, day 1 - day 7, tumors weighed on day 14) was 32%. Besides, in the data set with Meth A fibrosarcoma (76.0 mg/kg oral, day 1 - day 7, tumors weighed on day 14), the response vs control in vivo at 76 mg/kg was 15%. Also, the figures for the “Body Weight Change” value in data set [1] (38.0 mg/kg oral) and in data set [1] (76.0 mg/kg oral) were -0.2 g and -4.7 g, respectively.
As for `C#CCO[C@H]1C[C@H](n2cc(C(F)(F)F)c(=O)n(C(=O)c3ccco3)c2=O)O[C@@H]1CO` [Example 47], the response vs control in vivo at 25.6 mg/kg in the data set on Meth A fibrosarcoma (25.6 mg/kg oral, day 1 - day 7, tumors weighed on day 14) is 90.3%. Further, the response vs control in vivo at 76.9 mg/kg in the data set on Meth A fibrosarcoma (76.9 mg/kg oral, day 1 - day 7, tumors weighed on day 14) stood at 21.7%. The entries for the “Body Weight Change” value in data set [1] (25.6 mg/kg oral) and in data set [1] (76.9 mg/kg oral) were 0.7 g and -4.4 g, respectively.
In the case of `C#CCO[C@H]1C[C@H](n2cc(C(F)(F)F)c(=O)[nH]c2=O)O[C@@H]1COC(=O)CCCCCCCCCCCCCCCCC` [Example 29], the response vs control in vivo at 18 mg/kg in the data set on Meth A fibrosarcoma (18.0 mg/kg oral, day 1 - day 7, tumors weighed on day 14) was 52%. Also, the response vs control in vivo at 71.9 mg/kg in the data set with Meth A fibrosarcoma (71.9 mg/kg oral, day 1 - day 7, tumors weighed on day 14) amounted to 21%. Moreover, the “Body Weight Change” value in data set [1] (18.0 mg/kg oral) is -1.2 g; in data set [1] (71.9 mg/kg oral), -6.9 g.
`C#CCO[C@H]1C[C@H](n2cc(C(F)(F)F)c(=O)[nH]c2=O)O[C@@H]1COC(=O)CN1CCN(CCCCCCCCC)CC1.Cl.Cl` [Example 11, 5'-O-{2-(4-nonylpiperazin-1-yl)acetyl}-3'-O-propargyl-α,α,α-trifluorothymidine dihydrochloride]: the response vs control in vivo at 37 mg/kg in the data set with Meth A fibrosarcoma (37.0 mg/kg oral, day 1 - day 7, tumors weighed on day 14) turned out to be 58%. Moreover, the response vs control in vivo at 75 mg/kg in the data set with Meth A fibrosarcoma (75.0 mg/kg oral, day 1 - day 7, tumors weighed on day 14) was 31%. The “Body Weight Change” value in data set [1] (37.0 mg/kg oral) was 0.6 g; in data set [1] (75.0 mg/kg oral), -2.7 g.
Regarding `C#CCO[C@H]1C[C@H](n2cc(C(F)(F)F)c(=O)[nH]c2=O)O[C@@H]1CO[Si](C)(C)C(C)(C)C` [Example 1, 5'-O-(t-butyldimethylsilyl)-3'-O-propargyl-α,α,α-trifluorothymidine], in the data set with Meth A fibrosarcoma (setting [3]), the response vs control in vivo at 13.4 mg/kg worked out at 67% and the response vs control in vivo at 53.7 mg/kg is 33%. Moreover, the “Body Weight Change” value in data set [1] (13.4 mg/kg oral) is -0.3 g. The “Body Weight Change” value in data set [1] (53.7 mg/kg oral) was -4.9 g.
